# Patent publication EP2258713A1, “Antiviral Triterpene Derivatives” (priority 2009, dated 2010)
# Like-named read-outs stand apart in the source and are kept apart here.
# Tests used:
# H3N2 Influenza A Virus = format: cell-based
# TNFα = experiment: Expression of TNFα in cells (general statement, no data shown); format: cell-based; conditions: no values
# Description: A person skilled in the art would be able to identify TNFα-downregulating compounds of the invention by contacting one or more cells with a compound of the invention and assaying for the presence of one TNFα and comparing the levels of TNFα in the one or more cells with that of controls. Such methods are known in the art and are described in the examples herein below.
# MDCK cells [1] = experiment: Cytotoxicity determination: cell viability of uninfected cells, CellTiter-Glo luminescent cell viability assay; conditions: 48 h; for Viability %: MDCK cells
# MDCK cells [2] = conditions: dog, 48 h
# CK-2 = conditions: 30 µM; cited from earlier work
# [3] = tested on: murine retinal ganglion cells; conditions: cited from earlier work
# PKC and CK-I = conditions: 100 µM; cited from earlier work
SMILES,Viability % (MDCK cells [1]; 25 µM) [%],Viability % (MDCK cells [1]; 250 µM) [%],other results
"CON(C1OC(CO)C(O)C(O)C1O)C1CCC2(C)C(CCC3(C)C2C(=O)C=C2C4CC(C)(C(=O)O)CCC4(C)CCC23C)C1(C)C [Compound 1, (3S,18R,20S)-11-Oxo-3-[(beta-D-glucopyranosyl)methoxamino]-olean-12-en-29-oic acid]",,,"cytopathic effect associated with virus replication in cell culture (H3N2 Influenza A Virus; general statement, no values): reduce the cytopathic effect; expression of TNFα (TNFα): inhibit the expression of TNFα"
"COC(=O)[C@H]1O[C@@H](SCCN[C@H]2CC[C@]3(C)[C@H]4C(=O)C=C5[C@@H]6C[C@@](C)(C(=O)O)CC[C@]6(C)CC[C@@]5(C)[C@]4(C)CC[C@H]3C2(C)C)[C@H](O)[C@@H](O)[C@@H]1O [Compound 2, (3S,18R,20S)-3-[2-S-(Methyl-1-thio-beta-D-glucopyranosyluronate)-ethyl-amino]-11-oxo-olean-12-en-29-oic acid]",114.6,101.2,
"CC1(C)[C@@H](NCCS[C@@H]2O[C@H](C(=O)O)[C@@H](O)[C@H](O)[C@H]2O)CC[C@]2(C)[C@H]3C(=O)C=C4[C@@H]5C[C@@](C)(C(=O)O)CC[C@]5(C)CC[C@@]4(C)[C@]3(C)CC[C@@H]12 [Compound 3, (3S,18R,20S)-3-[2-(β-D-glucopyranuronosylthio)-ethyl-amino]-11-oxo-olean-12-en-29-oic acid]",103.5,105.5,
"COC(=O)[C@H]1O[C@@H](SCCN(C(C)=O)[C@H]2CC[C@]3(C)[C@H]4C(=O)C=C5[C@@H]6C[C@@](C)(C(=O)O)CC[C@]6(C)CC[C@@]5(C)[C@]4(C)CC[C@H]3C2(C)C)[C@H](O)[C@@H](O)[C@@H]1O [Compound 4, (3S,18R,20S)-3-{N-Acetyl-N-[2-S-(methyl-1-thio-beta-D-glucopyranosyluronate)-ethyl]-amino}-11-oxo-olean-12-en-29-oic acid]",104.4,99.4,
"CC(=O)N(CCS[C@@H]1O[C@H](C(=O)O)[C@@H](O)[C@H](O)[C@H]1O)[C@H]1CC[C@]2(C)[C@H]3C(=O)C=C4[C@@H]5C[C@@](C)(C(=O)O)CC[C@]5(C)CC[C@@]4(C)[C@]3(C)CC[C@H]2C1(C)C [Compound 5, (3S,18R,20S)-3-{N-Acetyl-N-[2-(beta-D-glucopyranuronosylthio)-ethyl]-amino}-11-oxo-olean-12-en-29-oic acid]",106.6,93.5,
"COC(=O)CCC(=O)N(CCS[C@@H]1O[C@H](C(=O)OC)[C@@H](O)[C@H](O)[C@H]1O)[C@H]1CC[C@]2(C)[C@H]3C(=O)C=C4[C@@H]5C[C@@](C)(C(=O)O)CC[C@]5(C)CC[C@@]4(C)[C@]3(C)CC[C@H]2C1(C)C [Compound 6, (3S,18R,20S)-3-{N-(4-Methoxy-1,4-dioxobutyl)-N-[2-S-(methyl-1-thio-beta-D-glucopyranosyluronate)-ethyl]-amino}-11-oxo-olean-12-en-29-oic acid]",107.3,106.3,
CC1(C)[C@@H](O)CC[C@]2(C)[C@H]3C(=O)C=C4[C@@H]5C[C@@](C)(C(=O)O)CC[C@]5(C)CC[C@@]4(C)[C@]3(C)CC[C@@H]12 [Glycyrrhetinic acid],,,Viability % (MDCK cells [2]; 25 µM): 0.2%; Viability % (MDCK cells [2]; 250 µM): 0.0%; phosphorylation of C3α by CK-2 (CK-2): completely inhibited; postsynaptic light response [3]: 30 % of control
"CC1(C)[C@@H](O[C@H]2O[C@H](C(=O)O)[C@@H](O)[C@H](O)[C@H]2O[C@@H]2O[C@H](C(=O)O)[C@@H](O)[C@H](O)[C@H]2O)CC[C@]2(C)[C@H]3C(=O)C=C4[C@@H]5C[C@@](C)(C(=O)O)CC[C@]5(C)CC[C@@]4(C)[C@]3(C)CC[C@@H]12 [Glycyrrhizin, glycyrrhizin, reference compound]",100.9,105.3,"reduction of the CPE (cytopathic effect) (H3N2 Influenza A Virus): 57%; phosphorylation of HMGB1/2 by PKC and CK-I (PKC and CK-I): completely inhibits; Viability % (MDCK cells [1]; 1500 µM): 101.7%; cell viability of uninfected treated cells versus uninfected untreated cells (MDCK cells [1]; 1.5 mM, uninfected MDCK cells): not significantly different"
